Source: ChEMBL document CHEMBL1201862, “PubChem BioAssay data set” (2004)
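Each compound was tested at five concentrations against cells in 96-well plates for 48 hours. Abbreviation: GI50, concentration required for 50% inhibition of growth.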 Calls of active or inactive are those of the source. No stated cut-off is given here; in the data, active = GI50 up to about 1.1 µM and inactive = higher.

What was measured:
Assay in all cases: inhibition of tumour cell growth, NCI panel, 48 h
IGROV-1 = system: IGROV-1
U-251 = system: U-251
OVCAR-4 = system: OVCAR-4
NCI-H23 = system: NCI-H23
SNB-19 = system: SNB-19
MDA-MB-435 = system: MDA-MB-435
CAKI-1 = system: CAKI-1
SR = system: SR
MOLT-4 = system: MOLT-4
A498 = system: A498
PC-3 = system: PC-3
SN12C = system: SN12C
SF-268 = system: SF-268
MDA-N = system: MDA-N
OVCAR-5 = system: OVCAR-5
HOP-62 = system: HOP-62
SK-MEL-2 = system: SK-MEL-2
KM12 = system: KM12
OVCAR-3 = system: OVCAR-3
OVCAR-8 = system: OVCAR-8
DU-145 = system: DU-145
T47D = system: T47D
RPMI-8226 = system: RPMI-8226
HCT-15 = system: HCT-15
NCI-H226 = system: NCI-H226
Hs-578T = system: Hs-578T
ACHN = system: ACHN
HOP-92 = system: HOP-92
SF-539 = system: SF-539
SK-OV-3 = system: SK-OV-3
TK-10 = system: TK-10
NCI-H460 = system: NCI-H460
MCF7 = system: MCF7
K562 = system: K562
NCI-H522 = system: NCI-H522
HL-60 = system: HL-60
HCT-116 = system: HCT-116
SNB-75 = system: SNB-75
UACC-62 = system: UACC-62
SF-295 = system: SF-295
MDA-MB-231 = system: MDA-MB-231
UO-31 = system: UO-31
NCI/ADR-RES = system: NCI/ADR-RES
BT-549 = system: BT-549
EKVX = system: EKVX
M14 = system: M14
SK-MEL-5 = system: SK-MEL-5
786-0 = system: 786-0
A549 = system: A549
HT-29 = system: HT-29
CCRF-CEM = system: CCRF-CEM
SK-MEL-28 = system: SK-MEL-28
LOX IMVI = system: LOX IMVI
COLO 205 = system: COLO 205
UACC-257 = system: UACC-257
HCC 2998 = system: HCC 2998
SW-620 = system: SW-620
Malme-3M = system: Malme-3M

## CC(=O)C1(O)CCC2(O)C3(O)CC=C4CC(O)CCC4(C)C3CC(OC(=O)c3ccc(O)cc3)C12C (stereo not given)
IGROV-1
  GI50: > 100 µM (inactive)
U-251
  GI50: > 100 µM (inactive)
OVCAR-4
  GI50: > 100 µM (inactive)
NCI-H23
  GI50: > 100 µM (inactive)
SNB-19
  GI50: > 100 µM (inactive)
MDA-MB-435
  GI50: > 100 µM (inactive)
CAKI-1
  GI50: > 100 µM (inactive)
SR
  GI50: > 100 µM (inactive)
MOLT-4
  GI50: 46.2 µM (inactive)
A498
  GI50: > 100 µM (inactive)
PC-3
  GI50: > 100 µM (inactive)
SN12C
  GI50: > 100 µM (inactive)
SF-268
  GI50: > 100 µM (inactive)
MDA-N
  GI50: > 100 µM (inactive)
OVCAR-5
  GI50: > 100 µM (inactive)
HOP-62
  GI50: > 100 µM (inactive)
SK-MEL-2
  GI50: > 100 µM (inactive)
KM12
  GI50: > 100 µM (inactive)
OVCAR-3
  GI50: > 100 µM (inactive)
OVCAR-8
  GI50: > 100 µM (inactive)
DU-145
  GI50: > 100 µM (inactive)
T47D
  GI50: > 100 µM (inactive)
RPMI-8226
  GI50: > 100 µM (inactive)
HCT-15
  GI50: > 100 µM
NCI-H226
  GI50: 80.2 µM (inactive)
Hs-578T
  GI50: > 100 µM (inactive)
ACHN
  GI50: > 100 µM (inactive)
HOP-92
  GI50: > 100 µM (inactive)
SF-539
  GI50: > 100 µM (inactive)
SK-OV-3
  GI50: > 100 µM (inactive)
TK-10
  GI50: > 100 µM (inactive)
NCI-H460
  GI50: > 100 µM (inactive)
MCF7
  GI50: > 100 µM (inactive)
K562
  GI50: 27 µM (inactive)
NCI-H522
  GI50: > 100 µM (inactive)
HL-60
  GI50: > 100 µM (inactive)
HCT-116
  GI50: > 100 µM (inactive)
SNB-75
  GI50: > 100 µM (inactive)
UACC-62
  GI50: 75.2 µM (inactive)
SF-295
  GI50: > 100 µM (inactive)
MDA-MB-231
  GI50: > 100 µM (inactive)
UO-31
  GI50: > 100 µM (inactive)
NCI/ADR-RES
  GI50: > 100 µM (inactive)
BT-549
  GI50: > 100 µM (inactive)
EKVX
  GI50: > 100 µM (inactive)
M14
  GI50: > 100 µM (inactive)
SK-MEL-5
  GI50: > 100 µM (inactive)
786-0
  GI50: > 100 µM (inactive)
A549
  GI50: > 100 µM (inactive)
HT-29
  GI50: > 100 µM (inactive)
CCRF-CEM
  GI50: > 100 µM (inactive)
SK-MEL-28
  GI50: > 100 µM (inactive)
LOX IMVI
  GI50: > 100 µM (inactive)
COLO 205
  GI50: > 100 µM (inactive)
UACC-257
  GI50: > 100 µM (inactive)
HCC 2998
  GI50: > 100 µM (inactive)
SW-620
  GI50: > 100 µM (inactive)

## C/C(=N\NC(=S)N1CCOCC1)c1nc2cccnc2[nH]1
IGROV-1
  GI50: 47.1 µM (inactive)
U-251
  GI50: 21.6 µM (inactive)
OVCAR-4
  GI50: 13.7 µM (inactive)
NCI-H23
  GI50: 35.2 µM (inactive)
SNB-19
  GI50: 21.9 µM (inactive)
MDA-MB-435
  GI50: > 100 µM (inactive)
CAKI-1
  GI50: 66.8 µM (inactive)
SR
  GI50: 49.5 µM (inactive)
MOLT-4
  GI50: 32.2 µM (inactive)
A498
  GI50: > 100 µM (inactive)
PC-3
  GI50: 27.9 µM (inactive)
SN12C
  GI50: 74 µM (inactive)
SF-268
  GI50: 24.8 µM (inactive)
MDA-N
  GI50: > 100 µM (inactive)
OVCAR-5
  GI50: 59.6 µM (inactive)
HOP-62
  GI50: 24.9 µM (inactive)
SK-MEL-2
  GI50: 17.9 µM (inactive)
KM12
  GI50: 67 µM (inactive)
OVCAR-3
  GI50: 31 µM (inactive)
OVCAR-8
  GI50: 21.4 µM (inactive)
DU-145
  GI50: 39.9 µM (inactive)
T47D
  GI50: 29.4 µM (inactive)
RPMI-8226
  GI50: 42.6 µM (inactive)
HCT-15
  GI50: 53.5 µM
NCI-H226
  GI50: 38.5 µM (inactive)
Hs-578T
  GI50: 39.2 µM (inactive)
ACHN
  GI50: 25.4 µM (inactive)
HOP-92
  GI50: 14.1 µM (inactive)
SF-539
  GI50: 19.3 µM (inactive)
SK-OV-3
  GI50: 36.6 µM (inactive)
TK-10
  GI50: 31.8 µM (inactive)
NCI-H460
  GI50: 31.4 µM (inactive)
MCF7
  GI50: 30.5 µM (inactive)
Malme-3M
  GI50: > 100 µM (inactive)
K562
  GI50: 51.9 µM (inactive)
NCI-H522
  GI50: 18.8 µM (inactive)
HL-60
  GI50: 24.5 µM (inactive)
HCT-116
  GI50: 27.8 µM (inactive)
SNB-75
  GI50: 18.2 µM (inactive)
UACC-62
  GI50: 37.7 µM (inactive)
SF-295
  GI50: 23.8 µM (inactive)
MDA-MB-231
  GI50: 28.9 µM (inactive)
UO-31
  GI50: 17.5 µM (inactive)
NCI/ADR-RES
  GI50: 80.5 µM (inactive)
BT-549
  GI50: 11.2 µM (inactive)
EKVX
  GI50: 19.5 µM (inactive)
M14
  GI50: 68.2 µM (inactive)
SK-MEL-5
  GI50: 27.6 µM (inactive)
786-0
  GI50: > 10 µM (inactive)
A549
  GI50: 30.7 µM (inactive)
HT-29
  GI50: 37.2 µM (inactive)
CCRF-CEM
  GI50: 30.3 µM (inactive)
SK-MEL-28
  GI50: 74.1 µM (inactive)
LOX IMVI
  GI50: 29.4 µM (inactive)
COLO 205
  GI50: 36.9 µM (inactive)
UACC-257
  GI50: 26 µM (inactive)
HCC 2998
  GI50: 78.3 µM (inactive)
SW-620
  GI50: 43 µM (inactive)
